# Tests used:
# Nt-hMLKL^F148A = target: T1, Nt-hMLKL^F148A (Homo sapiens, UniProt Q8NB16, F148A); experiment: SPR binding to Nt-hMLKL F148A mutant; conditions: versus Nt-hMLKL
# T1 construct: an N-terminal domain (Nt-hMLKL, amino acids 2–154, MW: 23 kDa) involved in oligomerization; His (N); made in house; host or cells: E. coli BL21
# Description: (§1) The hMLKL plasmid (RC213152, OriGene, Rockville, MD, USA), and recombinant Wt-hMLKL (ab241453, Abcam) and Wt-mMLKL (MBS1379843, MyBioSource, San Diego, CA, USA) proteins were purchased. Nt-hMLKL (2–154), Nt-mMLKL (1–180), and Ct-hMLKL (183–471) were generated using the pBT7-N-His vector. Nt-hMLKL^C86A, Nt-hMLKL^F148A, -hMLKL^C86A/L89A/D94A, and Nt-hMLKL^R145A/R146A/F148A/M150A were generated using the Site-directed Mutagenesis Kit (EZ004S, Enzynomics, S. Korea). These constructs were subcloned into pBT7-N-His and pET-15b plasmid vectors. E. coli BL21 cells transformed with the cloned expression vectors were cultured in LB medium and supplemented with 100 μg/mL ampicillin until an OD at 600 nm of 0.5–0.6 was reached. The cultures were induced by 1 mM IPTG (367-93-1, Sigma-Aldrich). The cells were lysed and centrifuged. The clear supernatants were subjected to Ni-NTA affinity chromatography (175018169, QIAGEN, Hilden, Germany). Plasmids encoding mMLKL (1–464)–gyrase fusion constructs were kindly provided by Prof. […]
# (§2) The interactions of Wt-hMLKL, Wt-mMLKL, Nt-mMLKL, Nt, and Ct-hMLKL proteins with Re-APO or Ox-APO were detected through SPR analysis using Biacore™ T200 (Cytiva, Marlborough, MA, USA). […] Sensorgrams were recorded and analyzed in real-time using the control software in the BIAcore T200 system. All data were analyzed using the BIA evaluation software (Cytiva).
# [1] = target: T2, Nt-hMLKL^R145A/R146A/F148A/M150A (Homo sapiens, UniProt Q8NB16, F148A/M150A/R145A/R146A); experiment: SPR binding to Nt-hMLKL quadruple mutant; conditions: CM5 chip
# T2 construct: an N-terminal domain (Nt-hMLKL, amino acids 2–154, MW: 23 kDa) involved in oligomerization; His (N); made in house; host or cells: E. coli BL21
# T2 sequence (Q8NB16 2-154 R145A/R146A/F148A/M150A): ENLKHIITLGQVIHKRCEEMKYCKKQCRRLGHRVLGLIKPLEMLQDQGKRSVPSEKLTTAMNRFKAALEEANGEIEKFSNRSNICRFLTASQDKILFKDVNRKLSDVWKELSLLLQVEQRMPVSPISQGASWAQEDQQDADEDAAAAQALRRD
# Description: as §1, §2
# p-MLKL and p-RIP1 = experiment: Western blot of cytosol and membrane fractions; type: cell-based, human; conditions: THP-1, TBZ, 20 μM
# Method: The cells were harvested and lysed in 1× RIPA buffer (R4100-010, GenDEPOT, Katy, TX, USA) containing protease (P3100-001, GenDEPOT) and phosphatase (1862495, Thermo Fisher Scientific) inhibitors. WCLs were then centrifuged at 20,000×g for 30 min at 4 °C and subjected to non-reducing or reducing 8–12% SDS-PAGE gel electrophoresis. The membrane was blocked with 5% non-fat milk in TBS and probed with antibodies. Antibodies to hMLKL (14993S), mMLKL (97705S), phospho-hMLKL (Ser358) (91689S), phospho-mMLKL (Ser345) (37333S), phospho-hRIP1 (Ser166) (65746S), mRIP1 (3493S), phospho-mRIP1 (Ser321) (38662S), phospho-hRIP3 (Ser227) (93654), mRIP3 (95702S), p-mRIP3 (Thr231/Ser232) (91702S), and LDH (2012S) (Cell Signaling Technology, Danvers, MA, USA), and GAPDH (LF-PA0018, Abfrontier, S. Korea), hRIP1 (ab72139, Abcam, Cambridge, UK), hRIP3 (sc-135170, Santa Cruz Biotechnology, Dallas, TX, USA), HMGB1 (ab78923, Abcam), and LAMP1 (ab24170, Abcam) antibodies were used.
# Cell membrane fractionation was performed to determine whether MLKL oligomers were retained in the cell membrane fraction. Briefly, THP-1 cells were harvested and resuspended in 20 mM TBS (pH 7.4) containing 10 mM KCl, 1 mM MgCl2, protease inhibitor (P3100-001, GenDEPOT), and phosphatase inhibitor (1862495, Thermo Fisher Scientific). The cell suspension was passed through a 22-gauge needle and centrifuged at 20,000×g for 15 min and stored as the cytoplasmic fraction. The pellet was resuspended in lysis buffer and stored as the crude membrane fraction.
# Fig. S1 Assessment of p-MLKL inhibition to identify MLKL-targeting molecules. (A) Quantification graph corresponding to Fig. 1C. THP-1 cells were treated with TBZ in the presence of secondarily selected compounds (S1–S72, 20 μM). Whole-cell lysates (WCLs) were collected and subjected to Western blot analysis under reducing conditions using antibodies against p-MLKL, MLKL, and GAPDH. The p-MLKL/MLKL ratio was quantified and compared to that of TBZ-treated cells. Data represent the mean of three independent experiments. (B) Quantification graph corresponding to Fig. 1D. THP-1 cells were treated with TBZ in the presence of third-round selected compounds (S1–S62, 20 μM). Cytosolic and membrane fractions were collected and analyzed by Western blot under reducing conditions. The levels of p-MLKL and p-RIP1 were normalized to LDH (cytosolic marker) and LAMP1 (membrane marker), respectively. Quantified ratios were compared to those of TBZ-treated cells (n = 3 independent experiments).
# THP-1 cells = experiment: Released HMGB1 in supernatant of TBZ-treated cells; type: cell-based, human; conditions: TBZ-treated THP-1, different concentrations, 8 h
# Method: TBZ-treated cell supernatants were harvested and centrifuged using Amicon ultra centrifugal filters 10 kDa (UFC501096, Millipore, Billerica, MA, USA) at 4000×g for 1 h. The concentrated supernatants were analyzed using SDS-PAGE to assess released HMGB1 levels.
# T1 sequence (Q8NB16 2-154 F148A): as the sequence (Q8NB16 2-154 R145A/R146A/F148A/M150A) above, with A144R, A145R, A149M counted along it
SMILES,fold weaker binding of single mutant (Nt-hMLKL^F148A),binding in SPR [1],p-MLKL levels in the cytosolic fraction (p-MLKL and p-RIP1),p-MLKL levels in the membrane fraction (p-MLKL and p-RIP1),HMGB1 release (THP-1 cells)
CN1CCc2cccc3c4c(cc1c23)C=CC(=O)C4=O [Ox-APO],~ 10 fold,retained binding,,,
"CN1CCc2cccc3c2[C@@H]1Cc1ccc(O)c(O)c1-3 [S62, (6aS)-6-methyl-5,6,6a,7-tetrahydro-4H-dibenzo[de,g]quinoline-10,11-diol]",,,little or moderate inhibition,significantly inhibited,dose-dependently decreased

# Source: publication PMC12518639, “Apomorphine is a novel necroptosis inhibitor targeting mixed lineage kinase domain-like protein oligomerization” (Cell Death Discovery, 2025)
